tested on: DLD-1 BRCA2−/− cells; assay: Homologous recombination synthetic lethal inhibition of proliferation, DLD-1 BRCA2-/- (Cell Titre Glo 3D); format: cell-based; settings: Homo sapiens, DLD-1, DLD-1 BRCA2 −/− cells; mean; read-out: POLQ PD Prolif Lumin BRCA2 −/− mean pIC50 (converted)
Summary of the method: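 Read-out: CellTiter-Glo 3D luminescence, day 7 for wt DLD-1, day 12 for BRCA2−/−, about 8-9 population doublings each. Seeding 1,500 or 3,000 cells/mL respectively. Dose range 10 μM–0.51 nM, 3-fold, 10 points, with re-dosing on day 6. IC50 from curve fit.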

SMILES | IC50
Cc1cccc(Cn2c(-c3ccc(CC(N)=O)cc3Cl)nc3c(OC4(C)CC4)ncnc32)c1 [Example T99, 2-(3-chloro-4-(9-(3-methylbenzyl)-6-(1-methylcyclopropoxy)-9H-purin-8-yl)phenyl)acetamide] | 79.4 nM
Cc1ccc(Cn2c(-c3ccc(CC(N)=O)cc3Cl)nc3c(OC4(C)CC4)ncnc32)cc1 [Example T100, 2-(3-chloro-4-(9-(4-methylbenzyl)-6-(1-methylcyclopropoxy)-9H-purin-8-yl)phenyl)acetamide] | 794 nM
Cc1ccccc1Cn1c(-c2ccc(CC(N)=O)cc2Cl)nc2c(OC3(C)CC3)ncnc21 [Example T101, 2-(3-chloro-4-(9-(2-methylbenzyl)-6-(1-methylcyclopropoxy)-9H-purin-8-yl)phenyl)acetamide] | 501 nM
CC1(Oc2ncnc3c2nc(-c2ccc(CC(N)=O)cc2Cl)n3CCc2ccccc2)CC1 [Example T102, 2-(3-chloro-4-(6-(1-methylcyclopropoxy)-9-phenethyl-9H-purin-8-yl)phenyl)acetamide] | 1580 nM
Cc1ccnc(Cn2c(-c3ccc(OC4COC4)cc3Cl)nc3c(OC4(C)CC4)ncnc32)c1 [Example T103, 8-(2-chloro-4-(oxetan-3-yloxy)phenyl)-6-(1-methylcyclopropoxy)-9-((4-methylpyridin-2-yl)methyl)-9H-purine] | 158 nM

same assay, conditions: Homo sapiens, DLD-1, first proliferation column (c5); DLD-1 BRCA2-/-; read-out: POLQ PD Prolif Lumin (converted)

SMILES | IC50
COc1cccc(Cn2c(-c3ccc(CC(N)=O)cc3Cl)nc3c(OC4(C)CC4)ncnc32)c1 [Example T105, 2-(3-chloro-4-(9-(3-methoxybenzyl)-6-(1-methylcyclopropoxy)-9H-purin-8-yl)phenyl)acetamide] | 631 nM
COc1ccc(Cn2c(-c3ccc(CC(N)=O)cc3Cl)nc3c(OC4(C)CC4)ncnc32)cc1 [Example T106, 2-(3-chloro-4-(9-(4-methoxybenzyl)-6-(1-methylcyclopropoxy)-9H-purin-8-yl)phenyl)acetamide] | 631 nM
Cc1ccnc(Cn2c(-c3ccc(OCCCF)cc3Cl)nc3c(OC4(C)CC4)ncnc32)c1 [Example T108, 8-(2-chloro-4-(3-fluoropropoxy)phenyl)-6-(1-methylcyclopropoxy)-9-((4-methylpyridin-2-yl)methyl)-9H-purine] | 126 nM
CNC(=O)Cc1ccc(-c2nc3c(OC4(C)CC4)ncnc3n2Cc2cc(C)ccn2)c(Cl)c1 [Example T113, 2-(3-chloro-4-(6-(1-methylcyclopropoxy)-9-((4-methylpyridin-2-yl)methyl)-9H-purin-8-yl)phenyl)-N-methylacetamide] | 316 nM
CCNC(=O)c1ccc(-c2nc3c(OC4(C)CC4)ncnc3n2Cc2cc(C)ccn2)c(Cl)c1 [Example T114, 3-chloro-N-ethyl-4-(6-(1-methylcyclopropoxy)-9-((4-methylpyridin-2-yl)methyl)-9H-purin-8-yl)benzamide] | 316 nM
Cc1ccnc(Cn2c(-c3ccc(N4CC(O)C4)cc3Cl)nc3c(OC4(C)CC4)ncnc32)c1 [Example T115, 1-(3-chloro-4-(6-(1-methylcyclopropoxy)-9-((4-methylpyridin-2-yl)methyl)-9H-purin-8-yl)phenyl)azetidin-3-ol] | 200 nM
CNC(=O)COc1ccc(-c2nc3c(OC4(C)CC4)ncnc3n2Cc2cc(C)ccn2)c(Cl)c1 [Example T118, 2-(3-chloro-4-(6-(1-methylcyclopropoxy)-9-((4-methylpyridin-2-yl)methyl)-9H-purin-8-yl)phenoxy)-N-methylacetamide] | 251 nM
CNC(=O)COc1ccc(Cl)c(-c2nc3c(OC4(C)CC4)ncnc3n2Cc2cc(C)ccn2)c1 [Example T122, 2-(4-chloro-3-(6-(1-methylcyclopropoxy)-9-((4-methylpyridin-2-yl)methyl)-9H-purin-8-yl)phenoxy)-N-methylacetamide] | 6310 nM
Cc1ccnc(Cn2c(-c3ccc(OCCCO)cc3Cl)nc3c(OC4(C)CC4)ncnc32)c1 [Example T124, 3-(3-chloro-4-(6-(1-methylcyclopropoxy)-9-((4-methylpyridin-2-yl)methyl)-9H-purin-8-yl)phenoxy)propan-1-ol] | 79.4 nM
COCCOc1ccc(-c2nc3c(OC4(C)CC4)ncnc3n2Cc2cc(C)ccn2)c(Cl)c1 [Example T125, 8-(2-chloro-4-(2-methoxyethoxy)phenyl)-6-(1-methylcyclopropoxy)-9-((4-methylpyridin-2-yl)methyl)-9H-purine] | 100 nM
Cc1ccnc(Cn2c(-c3ccc(NC(=O)N(C)C)cc3Cl)nc3c(OC4(C)CC4)ncnc32)c1 [Example T130, 3-(3-chloro-4-(6-(1-methylcyclopropoxy)-9-((4-methylpyridin-2-yl)methyl)-9H-purin-8-yl)phenyl)-1,1-dimethylurea] | 501 nM
CNC(=O)CNc1ccc(-c2nc3c(OC4(C)CC4)ncnc3n2Cc2cc(C)ccn2)c(Cl)c1 [Example T131, 2-((3-chloro-4-(6-(1-methylcyclopropoxy)-9-((4-methylpyridin-2-yl)methyl)-9H-purin-8-yl)phenyl)amino)-N-methylacetamide] | 794 nM
Cc1ccnc(Cn2c(-c3ccc(OCCNC(N)=O)cc3Cl)nc3c(OC4(C)CC4)ncnc32)c1 [Example T133, 1-(2-(3-chloro-4-(6-(1-methylcyclopropoxy)-9-((4-methylpyridin-2-yl)methyl)-9H-purin-8-yl)phenoxy)ethyl)urea] | 251 nM
Cc1cnc(Cn2c(-c3ccc(OCCN4CC(O)C4)cc3Cl)nc3c(OC4(C)CC4)ncnc32)s1 [Example T141, 1-(2-(3-chloro-4-(6-(1-methylcyclopropoxy)-9-((5-methylthiazol-2-yl)methyl)-9H-purin-8-yl)phenoxy)ethyl)azetidin-3-ol] | 501 nM
Cc1ccnc(Cn2c(-c3ccc(CCNS(C)(=O)=O)cc3Cl)nc3c(OC4(C)CC4)ncnc32)c1 [Example T143, N-(3-chloro-4-(6-(1-methylcyclopropoxy)-9-((4-methylpyridin-2-yl)methyl)-9H-purin-8-yl)phenethyl)methanesulfonamide] | 398 nM
Cc1ccnc(Cn2c(-c3ccc(OCCNS(C)(=O)=O)cc3Cl)nc3c(OC4(C)CC4)ncnc32)c1 [Example T144, N-(2-(3-chloro-4-(6-(1-methylcyclopropoxy)-9-((4-methylpyridin-2-yl)methyl)-9H-purin-8-yl)phenoxy)ethyl)methanesulfonamide] | 158 nM
C#CCNC(=O)c1ccc(-c2nc3c(OC4(C)CC4)ncnc3n2Cc2cc(C)ccn2)c(Cl)c1 [Example T152, 3-chloro-4-(6-(1-methylcyclopropoxy)-9-((4-methylpyridin-2-yl)methyl)-9H-purin-8-yl)-N-(prop-2-yn-1-yl)benzamide] | 398 nM
Cc1ccnc(Cn2c(-c3ccc(C(=O)N4CC(F)C4)cc3Cl)nc3c(OC4(C)CC4)ncnc32)c1 [Example T153, (3-chloro-4-(6-(1-methylcyclopropoxy)-9-((4-methylpyridin-2-yl)methyl)-9H-purin-8-yl)phenyl)(3-fluoroazetidin-1-yl)methanone] | 501 nM
Cc1ccnc(Cn2c(-c3ccc(OCC(=O)NCC(F)(F)F)cc3Cl)nc3c(OC4(C)CC4)ncnc32)c1 [Example T154, 2-(3-chloro-4-(6-(1-methylcyclopropoxy)-9-((4-methylpyridin-2-yl)methyl)-9H-purin-8-yl)phenoxy)-N-(2,2,2-trifluoroethyl)acetamide] | 200 nM
